Test system: HBV
Assay: HBV-DNA Antiviral Assay Using HepG2.2.15 Cells (extracellular HBV DNA by qPCR)
Format: cell-based, hepatitis B virus (HBV)
Conditions: Hepatitis B virus; HBV DNA inhibition, HepG2.2.15 cells, extracellular HBV DNA by qPCR; read-out: EC50
Method in brief: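 HepG2.2.15 cells were treated on day 1 with 8 concentrations (4-fold dilutions, duplicate; 0.5% DMSO), with compound-containing medium refreshed on day 4, at 37 °C. On day 7, supernatant HBV DNA was measured by qPCR against a plasmid standard curve, with inhibition normalised between DMSO and ETV controls. EC50/EC90 and CC50 (CellTiter-Glo ATP) came from variable-slope fits.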

Structure (SMILES) | EC50 [nM]
C#C[C@@](CO)(NC(=O)C(=O)c1c(C)c(C(=O)Nc2ccc(F)c(C#N)c2)n(C)c1C)C(F)(F)F [Compound 71b, N-(3-cyano-4-fluoro-phenyl)-1,3,5-trimethyl-4-[2-oxo-2-[[(1S)-1-(hydroxymethyl)-1-(trifluoromethyl)prop-2-ynyl]amino]acetyl]pyrrole-2-carboxamide] | 1 to 10
C=C[C@](C)(CO)NC(=O)C(=O)c1c(C)c(C(=O)Nc2ccc(F)c(C#N)c2)n(C)c1C [Compound 72a, N-(3-cyano-4-fluoro-phenyl)-1,3,5-trimethyl-4-[2-oxo-2-[[(1R)-1-(hydroxymethyl)-1-methyl-allyl]amino]acetyl]pyrrole-2-carboxamide] | 1 to 10
C=C[C@@](C)(CO)NC(=O)C(=O)c1c(C)c(C(=O)Nc2ccc(F)c(C#N)c2)n(C)c1C [Compound 72b, N-(3-cyano-4-fluoro-phenyl)-1,3,5-trimethyl-4-[2-oxo-2-[[(1S)-1-(hydroxymethyl)-1-methyl-allyl]amino]acetyl]pyrrole-2-carboxamide] | 1 to 10
C=C[C@](CO)(NC(=O)C(=O)c1c(C)c(C(=O)Nc2ccc(F)c(C#N)c2)n(C)c1C)C(F)(F)F [Compound 74a, N-(3-cyano-4-fluoro-phenyl)-1,3,5-trimethyl-4-[2-oxo-2-[[(1R)-1-(hydroxymethyl)-1-(trifluoromethyl)allyl]amino]acetyl]pyrrole-2-carboxamide] | 1 to 10
C#C[C@@](CO)(NC(=O)C(=O)c1c(C)c(C(=O)Nc2ccc(F)c(C(F)(F)F)c2)n(C)c1C)C(F)(F)F [Compound 75b, N-[4-fluoro-3-(trifluoromethyl)phenyl]-1,3,5-trimethyl-4-[2-oxo-2-[[(1S)-1-(hydroxymethyl)-1-(trifluoromethyl)prop-2-ynyl]amino]acetyl]pyrrole-2-carboxamide] | 10 to 100
Cc1c(C(=O)C(=O)NC2(C#CCO)COC2)c(C)n(C)c1C(=O)Nc1ccc(F)c(C#N)c1 [Compound 76, N-(3-cyano-4-fluoro-phenyl)-4-[2-[[3-(3-hydroxyprop-1-ynyl)oxetan-3-yl]amino]-2-oxo-acetyl]-1,3,5-trimethyl-pyrrole-2-carboxamide] | 10 to 100
C#C[C@@](C)(NC(=O)C(=O)c1c(C)c(C(=O)Nc2ccc(F)c(C#N)c2)n(C)c1C)C(F)(F)F [Compound 79a, N-(3-cyano-4-fluoro-phenyl)-1,3,5-trimethyl-4-[2-oxo-2-[[(1R)-1-methyl-1-(trifluoromethyl)prop-2-ynyl]amino]acetyl]pyrrole-2-carboxamide] | 1 to 10
C#C[C@](C)(NC(=O)C(=O)c1c(C)c(C(=O)Nc2ccc(F)c(C#N)c2)n(C)c1C)C(F)(F)F [Compound 79b, N-(3-cyano-4-fluoro-phenyl)-1,3,5-trimethyl-4-[2-oxo-2-[[(1S)-1-methyl-1-(trifluoromethyl)prop-2-ynyl]amino]acetyl]pyrrole-2-carboxamide] | 1 to 10
C=C[C@](CO)(NC(=O)C(=O)c1c(C)c(C(=O)Nc2ccc(F)c(C(F)(F)F)c2)n(C)c1C)C(F)(F)F [Compound 80a, N-[4-fluoro-3-(trifluoromethyl)phenyl]-1,3,5-trimethyl-4-[2-oxo-2-[[(1R)-1-(hydroxymethyl)-1-(trifluoromethyl)allyl]amino]acetyl]pyrrole-2-carboxamide] | 1 to 10
C=C[C@@](CO)(NC(=O)C(=O)c1c(C)c(C(=O)Nc2ccc(F)c(C(F)(F)F)c2)n(C)c1C)C(F)(F)F [Compound 80b, N-[4-fluoro-3-(trifluoromethyl)phenyl]-1,3,5-trimethyl-4-[2-oxo-2-[[(1S)-1-(hydroxymethyl)-1-(trifluoromethyl)allyl]amino]acetyl]pyrrole-2-carboxamide] | 1 to 10
C#CC1(NC(=O)C(=O)c2c(C)c(C(=O)Nc3ccc(F)c(C(F)F)c3)n(C)c2Cl)CC(F)(F)C1 [Compound 81, 5-chloro-N-[3-(difluoromethyl)-4-fluoro-phenyl]-4-[2-[(1-ethynyl-3,3-difluoro-cyclobutyl)amino]-2-oxo-acetyl]-1,3-dimethyl-pyrrole-2-carboxamide] | 1 to 10
